US7244763B2, “Compounds that modulate PPAR activity and methods of preparation” (Warner Lambert Company LLC, priority 2003, dated 2007)

Experiments:
hPPARβ = target: T1, hPPARβ (Homo sapiens, UniProt Q03181); experiment: Test A transient transfection assay, HepG2 cells, Gal4-PPAR chimeric receptor luciferase reporter (Hep G2-hBeta); format: cell-based; conditions: HepG2 cells transfected with hPPARβ chimeric receptor, 24 hours, read-out: EC50β (Hep G2-hBeta EC50)
T1 construct: expression plasmids encoding hPPARα, hPPARβ or mPPARγ chimeric receptors
T1 sequence (Q03181 171-441 limits assumed): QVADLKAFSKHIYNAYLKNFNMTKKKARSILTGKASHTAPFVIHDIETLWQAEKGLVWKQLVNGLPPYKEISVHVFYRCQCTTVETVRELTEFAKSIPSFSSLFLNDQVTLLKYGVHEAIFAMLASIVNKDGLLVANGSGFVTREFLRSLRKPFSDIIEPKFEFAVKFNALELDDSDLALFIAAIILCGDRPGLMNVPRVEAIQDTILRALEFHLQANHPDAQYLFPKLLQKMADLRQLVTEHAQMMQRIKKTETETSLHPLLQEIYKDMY
Procedure: (§1) 1. Test A. Transient Transfections Assay Using the HepG2 Hepatoma Cell Line.
(§2) HepG2 cells were transiently transfected with an expression plasmids encoding hPPARα, hPPARβ or mPPARγ chimeric receptors and a reporter containing the yeast upstream activating sequence (UAS) upstream of the viral E1B promoter controlling a luciferase reporter gene. In addition, the plasmid pRSVβ-gal was used to control for transfection efficiency. HepG2 cells were grown in DMEM supplemented with 10% FBS and 1 μM non-essential amino acid. On the first day, cells were split into 100 mm dishes at 2.5×10^6/dish and incubated overnight at 37C.°/5% CO2. On the second day the cells were transiently transfected with plasmid DNA encoding a chimeric receptor, the luciferase reporter gene; and β-gal. For each 100 mm dish, 15 μg of luciferase reporter (PG5E1b) DNA, 15 μg of Gal4-PPAR chimeric receptor DNA, and 1.5 μg of β-gal plasmid DNA were mixed with 1.4 ml of opti-MEM in the tube. 281 μl of LipoFectamine-2000 reagent was added to 1.4 ml of opti-MEM in the tube, and incubate for 5 min at RT. The diluted Lipofectamine-2000 reagent was combined with the DNA mixture, and incubate for 20 min at RT. After fresh medium was added to each 100 mm dish of cells, 2.8 ml of Lipofectamine2000-DNA mixture was added dropwise to the 100 mm dish containing 14 ml of medium, and incubate 37° C. overnight. […]

human PPARβ LBD = target: T2, human PPARβ LBD (Homo sapiens, UniProt Q03181); experiment: Test B radioligand competition binding assay (SPA), PPARβ LBD-GST fusion protein; conditions: concentration that inhibits 50% of interaction between PPARβ LBD and tritiated ligand
T2 construct: made in house; host or cells: E. coli BL21(DE3)pLysS
T2 sequence (Q03181 211-439 limits assumed): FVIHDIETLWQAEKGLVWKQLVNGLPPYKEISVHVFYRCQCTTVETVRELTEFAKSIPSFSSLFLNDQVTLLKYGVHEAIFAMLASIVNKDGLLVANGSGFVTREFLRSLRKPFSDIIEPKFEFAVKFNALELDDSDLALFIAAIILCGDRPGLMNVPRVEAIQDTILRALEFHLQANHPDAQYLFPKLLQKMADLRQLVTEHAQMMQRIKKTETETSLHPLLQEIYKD
Text: 2. Test B. Radioligand Binding Assay
The ability of a compound to interact with PPARβ can be determined using a competition-based receptor binding assay that employs a radiolabeled PPARβ ligand together with a fragment of the PPARβ receptor containing the ligand binding domain (LBD) fused to the protein glutathione-S-transferase (GST). • [1] Preparation of PPARβ LBD-GST fusion protein. The ligand binding domain of the human PPARβ LBD-GST fusion protein can be expressed in E. coli and purified as outlined below. DNA encoding the LBD of human PPARβ is amplified via PCR and inserted in-frame into the bacterial expression vector pGEX-2t PPARβ LBD-GST fusion proteins are expressed in BL21(DE3)pLysS cells. After a 1–2 hr incubation with up to 1 mM IPTG, the cells are lysed by freeze-thaw in buffer containing 50 mM Tris (pH=8), 250 mM KCl, 10 mM DTT, 1 mM PMSF, and 1% triton X-100. After room temperature DNAse and RNAse treatment for 15 min and centrifugation for 1 hr at 50,000×g, 1.5 ml of a glutathione-Sepharose 4B slurry in PBS is added to the resulting supernatant and the mixture is incubated at room temperature for 30 min. […] After incubation with shaking at room temperature for 30 minutes, radioactivity bound to the PPARβ LBD-GST fusion protein/anti-GST/SPA antibody-binding bead complex is assessed using a Wallac MicroBeta plate reader. […]

PPARαLBD = target: T3, PPARαLBD (Homo sapiens, UniProt Q07869); experiment: Test B radioligand competition binding assay, similar procedure with PPARα LBD; conditions: competition binding to PPARα LBD
T3 construct: GST (inferred from 'similar procedure')
T3 sequence (Q07869 239-466 limits assumed): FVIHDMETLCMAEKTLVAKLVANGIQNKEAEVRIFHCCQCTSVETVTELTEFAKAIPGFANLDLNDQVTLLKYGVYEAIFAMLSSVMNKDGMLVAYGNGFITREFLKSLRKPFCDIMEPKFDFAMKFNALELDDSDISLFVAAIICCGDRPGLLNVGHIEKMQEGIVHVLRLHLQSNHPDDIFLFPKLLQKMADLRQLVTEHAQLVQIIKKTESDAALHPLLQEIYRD

hPPARα = target: T4, hPPARα (Homo sapiens, UniProt Q07869); experiment: Test A transient transfection assay, HepG2 cells, Gal4-PPAR chimeric receptor luciferase reporter (Hep G2-hAlpha); format: cell-based; conditions: HepG2 cells transfected with hPPARα chimeric receptor, 24 hours, read-out: EC50α (Hep G2-hAlpha EC50)
T4 construct: expression plasmids encoding hPPARα, hPPARβ or mPPARγ chimeric receptors
T4 sequence (Q07869 200-468 limits assumed): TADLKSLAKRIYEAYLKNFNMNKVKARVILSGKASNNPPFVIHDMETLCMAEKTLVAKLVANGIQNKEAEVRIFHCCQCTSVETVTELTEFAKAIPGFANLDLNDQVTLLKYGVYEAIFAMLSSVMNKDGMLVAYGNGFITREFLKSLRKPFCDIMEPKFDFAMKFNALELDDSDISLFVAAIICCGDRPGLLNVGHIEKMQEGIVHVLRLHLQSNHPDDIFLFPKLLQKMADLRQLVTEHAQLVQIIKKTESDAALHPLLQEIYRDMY
Procedure: as §1, §2

O=C(O)CC1CCc2cc(SCc3ccc(-c4ccc(C(F)(F)F)cn4)cc3)ccc2O1 (centres unmarked) [Compound 10, {6-[4-(5-Trifluoromethyl-pyridin-2-yl)-benzylsulfanyl]-chroman-2-yl}-acetic acid]
EC50 (hPPARβ): 6660 nM

COc1cc(C(C)(C)C(=O)O)ccc1SCc1ccc(-c2ccc(C(F)(F)F)cn2)cc1 [Compound 21, 2-{3-Methoxy-4-[4-(5-trifluoromethyl-pyridin-2-yl)-benzylsulfanyl]-phenyl}-2-methyl-propionic acid]
EC50 (hPPARβ): 303 nM
IC50 (human PPARβ LBD): 449 nM

O=C(O)COc1ccc(SCc2ccc(OC3CCc4cc(Cl)ccc43)cc2)c2c1CCC2 (centres unmarked) [Compound 23, {7-[4-(5-Chloro-indan-1-yloxy)-benzylsulfanyl]-indan-4-yloxy}-acetic acid]
melting point: 169 to 170 °C

O=C(O)Cc1coc2cc(OCc3cc(-c4ccc(Cl)cc4)on3)ccc12 [Compound 24, {6-[5-(4-Chloro-phenyl)-isoxazol-3-ylmethoxy]-benzofuran-3-yl}-acetic acid]
melting point: 193 to 194 °C

O=C(O)Cc1coc2cc(OCc3ccc(OCc4ccc(C(F)(F)F)cc4)cc3)ccc12 [Compound 25, {6-[4-(4-Trifluoromethyl-benzyloxy)-benzyloxy]-benzofuran-3-yl}-acetic acid]
melting point: 161 to 163 °C

Cc1cc(SCCCc2ccc3ccccc3c2)ccc1OCC(=O)O [Compound 27, [2-Methyl-4-(3-naphthalen-2-yl-propylsulfanyl)-phenoxy]-acetic acid]
IC50 (PPARαLBD): 3540 nM

Cc1cc(SCCCCOc2ccc(Cl)cc2Cl)ccc1OCC(=O)O [Compound 31, {4-[4-(2,4-Dichloro-phenoxy)-butylsulfanyl]-2-methyl-phenoxy}-acetic acid]
IC50 (human PPARβ LBD): 6.8 nM

O=C(O)C1(c2ccc(SCc3ccc(-c4ccc(C(F)(F)F)cc4)cc3)cc2)CC1 [Compound 36, 1-[4-(4′-Trifluoromethyl-biphenyl-4-ylmethylsulfanyl)-phenyl]-cyclopropanecarboxylic acid]
EC50 (hPPARα): 1960 nM

O=C(O)Cc1csc2c(OCc3cc(-c4ccc(Cl)cc4)on3)cccc12 [Compound 77, {7-[5-(4-Chloro-phenyl)-isoxazol-3-ylmethoxy]-benzo[b]thiophen-3-yl}-acetic acid]
melting point: 229 to 230 °C (dec.)

Cc1cc2c(CC(=O)O)csc2cc1OCc1ccccc1OCc1ccc(C(F)(F)F)cc1 [Compound 78, {5-Methyl-6-[2-(4-trifluoromethyl-benzyloxy)-benzyloxy]-benzo[b]-thiophen-3-yl}-acetic acid]
melting point: 157 to 158 °C
